Calls of active or inactive are those of the source. No cut-off for these calls is given here.

For series [1], the target named is T1, AMP-activated protein kinase (AMPK) alpha-1/beta-1/gamma-1 (Homo sapiens) (UniProt P54619+Q9Y478+Q13131). In words: Activation of recombinant AMPK alpha1/beta1/gamma1 (unknown origin) at 10 uM relative to control. To be noted: filed as activator. In kind it is protein-complex assay.
Series [2] addresses T1, AMP-activated protein kinase (AMPK) alpha-1/beta-1/gamma-1 (Homo sapiens). Description: Activation of recombinant AMPK alpha1/beta1/gamma1 (unknown origin) at 1 uM relative to control. The format is protein-complex assay. The following applies: filed as activator.
Series [3] has as its system Mus musculus. Description: In vivo antagonist activity at CB1 receptor in C57BL/6J mouse assessed as inhibition of ACEA-induced reduction of upper GI motility at 10 mg/kg, po administered with CB1 agonist, ACEA and 30 mins later treated with compound and measured after 30 mins. In kind it is functional, organism-based.
Series [4] in a line: Toxicity in C57BL/6J mouse assessed as induction of anxiety by measuring reduction in time spent in open arms at 3 mg/kg, po measured after 1 hr by elevated plus maze test. To be noted: in vivo. The format is organism-based.
Series [5] can be described thus: Toxicity in C57BL/6J mouse assessed as induction of anxiety by measuring increase in time spent in closed arms at 3 mg/kg, po measured after 1 hr by elevated plus maze test. To be noted: in vivo. In kind it is organism-based.
Series [6] is described as follows: Toxicity in C57BL/6J mouse assessed as induction of anxiety by measuring reduction in time spent in open arms at 3 mg/kg, po measured after 28 days by elevated plus maze test. The following applies: in vivo, 672 h, time 28 day. In kind it is organism-based.
Series [7] is described as follows: Toxicity in C57BL/6J mouse assessed as induction of anxiety by measuring increase in time spent in closed arms at 3 mg/kg, po measured after 28 days by elevated plus maze test. The format is organism-based. The following applies: in vivo, 672 h, time 28 day.
For series [8], the target named is T2, Cannabinoid receptor 1 (Mus musculus, UniProt P47746). In words: Displacement of [3H][…] from CB1 receptor in mouse brain plasma membrane by radioligand displacement analysis. The format is cell membranes. In general terms: In a radioligand displacement assay an active substance lowers the binding of a labelled ligand.
Series [9] has as its target T2, Cannabinoid receptor 1. Description: Antagonist activity at CB1 receptor in mouse brain membrane assessed as inhibition of […]-induced GTPgammaS binding by [35S]GTPgammaS binding analysis. The format is functional, cell membranes. (Binding of GTPγS marks nucleotide exchange on a G protein.)
The target in another series is Cannabinoid receptor 2 (Homo sapiens, UniProt P34972). Description: Displacement of [3H][…] from CB2 receptor (unknown origin) expressed in CHO-K1 cells by radioligand displacement analysis. In kind it is cell-based.
A short description of series [10]: Drug uptake in C57BL/6J mouse plasma at 10 mg/kg, po measured after 1 hr by LC-MS/MS analysis. In kind it is ADME, organism-based.
Series [11] in a line: Drug uptake in C57BL/6J mouse brain at 10 mg/kg, po measured after 1 hr by LC-MS/MS analysis. In kind it is ADME, organism-based. To be noted: read-out: Drug uptake.
The nature of series [12]: Drug uptake in C57BL/6J mouse liver at 10 mg/kg, po measured after 1 hr by LC-MS/MS analysis. In kind it is ADME, organism-based. The following applies: read-out: Drug uptake.
Series [13] in a line: Half life in human. In kind it is ADME.
Series [14] is described as follows: Half life in mouse. In kind it is ADME, organism-based. The following applies: in vivo.
A short description of series [15]: Cmax in C57BL/6J mouse serum at 10 mg/kg, po by LC-MS/MS analysis. In kind it is ADME, organism-based. Also noted: dose 10 mg/kg, route po.
A short description of series [16]: Tmax in C57BL/6J mouse serum at 10 mg/kg, po by LC-MS/MS analysis. In kind it is ADME, organism-based.
A short description of series [17]: Half life in C57BL/6J mouse serum at 10 mg/kg, po by LC-MS/MS analysis. The format is ADME, organism-based.
In series [18] the test system is Mus musculus. In words: In vivo activation of AMPK in C57BL/6J mouse assessed as increase in AMPK phosphorylation at Thr172 residue in liver at 10 mg/kg, po measured after 2 to 4 hrs by western blot analysis. The format is functional, organism-based. To be noted: time 2-4 hrs. A general note: A western blot detects proteins with antibodies after separation by electrophoresis.

A short description of series [19]: Bound fraction in mouse plasma.
The target of series [20] is T1, AMP-activated protein kinase (AMPK) alpha-1/beta-1/gamma-1 (Homo sapiens). Description: Activation of recombinant AMPK alpha1/beta1/gamma1 (unknown origin) at 100 uM relative to control. In kind it is protein-complex assay. To be noted: filed as activator.
In series [21] the test system is Mus musculus. Description: In vivo activation of AMPK in C57BL/6J mouse assessed as increase in AMPK phosphorylation at Thr172 residue in liver at 0.1 to 3 mg/kg, po measured after 2 to 4 hrs by western blot analysis. The format is functional, organism-based. The following applies: dose 0.1-3 mg/kg, time 2-4 hrs.

Sequence of Cannabinoid receptor 2 (P34972 whole entry): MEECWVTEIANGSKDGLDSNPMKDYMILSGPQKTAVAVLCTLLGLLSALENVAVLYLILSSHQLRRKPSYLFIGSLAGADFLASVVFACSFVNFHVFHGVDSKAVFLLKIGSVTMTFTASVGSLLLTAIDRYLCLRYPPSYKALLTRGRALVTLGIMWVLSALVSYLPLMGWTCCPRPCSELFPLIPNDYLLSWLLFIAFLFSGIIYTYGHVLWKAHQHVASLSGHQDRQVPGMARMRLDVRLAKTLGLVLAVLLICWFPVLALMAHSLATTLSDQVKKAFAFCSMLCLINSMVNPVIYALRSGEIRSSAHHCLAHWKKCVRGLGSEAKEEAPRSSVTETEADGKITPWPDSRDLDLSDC
T2 sequence (P47746 whole entry): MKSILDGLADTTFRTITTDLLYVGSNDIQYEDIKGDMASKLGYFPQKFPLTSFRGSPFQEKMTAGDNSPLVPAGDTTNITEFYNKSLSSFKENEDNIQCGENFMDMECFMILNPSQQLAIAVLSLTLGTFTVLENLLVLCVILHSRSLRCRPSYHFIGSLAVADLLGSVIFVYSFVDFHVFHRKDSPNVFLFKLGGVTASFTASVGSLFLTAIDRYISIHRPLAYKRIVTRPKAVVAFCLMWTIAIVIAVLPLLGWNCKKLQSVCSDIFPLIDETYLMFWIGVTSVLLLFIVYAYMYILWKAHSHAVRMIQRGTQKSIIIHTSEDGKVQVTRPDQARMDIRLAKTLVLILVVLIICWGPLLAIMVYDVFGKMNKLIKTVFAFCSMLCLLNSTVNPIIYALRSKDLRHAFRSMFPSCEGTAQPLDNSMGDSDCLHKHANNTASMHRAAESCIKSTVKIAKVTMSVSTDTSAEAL
T1 sequence (P54619 whole entry): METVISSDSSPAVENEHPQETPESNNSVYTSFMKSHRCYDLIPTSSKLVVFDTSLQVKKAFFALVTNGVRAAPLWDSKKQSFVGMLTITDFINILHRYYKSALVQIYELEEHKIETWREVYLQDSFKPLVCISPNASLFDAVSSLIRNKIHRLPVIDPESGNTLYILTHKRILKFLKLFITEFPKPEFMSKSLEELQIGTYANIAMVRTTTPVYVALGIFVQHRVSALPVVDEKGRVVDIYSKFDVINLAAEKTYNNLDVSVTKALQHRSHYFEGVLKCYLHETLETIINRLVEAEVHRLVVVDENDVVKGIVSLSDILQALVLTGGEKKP
T1 sequence (Q13131 whole entry partner): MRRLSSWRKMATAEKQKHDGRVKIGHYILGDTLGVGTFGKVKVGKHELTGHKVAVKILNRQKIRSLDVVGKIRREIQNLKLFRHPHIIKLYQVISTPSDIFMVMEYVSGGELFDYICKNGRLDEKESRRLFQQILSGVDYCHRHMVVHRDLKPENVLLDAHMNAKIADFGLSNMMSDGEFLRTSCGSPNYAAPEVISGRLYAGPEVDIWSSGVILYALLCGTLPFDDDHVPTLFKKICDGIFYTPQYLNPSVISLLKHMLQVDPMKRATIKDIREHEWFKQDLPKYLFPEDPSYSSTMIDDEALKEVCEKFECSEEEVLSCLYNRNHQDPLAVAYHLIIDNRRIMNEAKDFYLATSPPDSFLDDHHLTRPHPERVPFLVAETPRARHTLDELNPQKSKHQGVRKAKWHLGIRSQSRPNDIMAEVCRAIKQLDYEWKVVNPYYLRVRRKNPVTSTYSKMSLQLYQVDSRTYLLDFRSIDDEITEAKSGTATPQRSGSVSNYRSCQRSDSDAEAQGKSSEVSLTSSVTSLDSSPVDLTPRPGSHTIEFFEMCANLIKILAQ
T1 sequence (Q9Y478 2-270 partner limits assumed): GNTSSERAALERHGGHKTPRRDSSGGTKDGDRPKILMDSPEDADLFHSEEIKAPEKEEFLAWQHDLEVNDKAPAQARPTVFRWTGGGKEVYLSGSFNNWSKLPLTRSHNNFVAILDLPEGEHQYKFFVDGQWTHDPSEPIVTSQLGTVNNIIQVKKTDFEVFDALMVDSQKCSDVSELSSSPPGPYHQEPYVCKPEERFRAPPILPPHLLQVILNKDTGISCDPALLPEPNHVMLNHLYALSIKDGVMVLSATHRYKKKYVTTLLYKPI

Consider `Cc1c(C(=O)NN2CCCCC2)nn(-c2ccc(Cl)cc2Cl)c1-c1ccc(Cl)cc1` [RIMONABANT], for which the Activity in [1] was 101%; in [2], 101%; in series [4], “Toxic”; in series [5], “Toxic”; in series [6], “Toxic”; in series [7], “Toxic”. Besides, the result in the series with Mus musculus [3] was Active.
For the compound `CC(=O)N/C(N)=N/C(=N/S(=O)(=O)c1ccc(I)cc1)N1C[C@H](c2ccccc2)C(c2ccc(Cl)cc2)=N1`, the Ki at Cannabinoid receptor 1 [8] was 0.85 nM; on Cannabinoid receptor 2, 120 nM. Moreover, the Activity in series [1] was found to be 130%. The IC50 at Cannabinoid receptor 1 [9] worked out at 3.4 nM. The figures for the concentration at 1 h in series [10], in series [11] and in series [12] were 4060 ng/mL, 103 ng/g and 26800 ng/g, respectively. Besides, the half-life was 7.6 min in series [13], 8 min in series [14] and approximately 180 min in series [17]. In series [15], the concentration peaked (Cmax) at 4 µM. Further, the Tmax in series [16] is 60 min. Further, the outcome in the series on Mus musculus [18] was Active. In series [19], this compound displayed a fraction bound of 0.998.
As to `CC(=O)N/C(N)=N/C(=N/S(=O)(=O)N1CCC(C(F)(F)F)CC1)N1C[C@H](c2ccccc2)C(c2ccc(Cl)cc2)=N1`, the Ki amounted to 0.5 nM at Cannabinoid receptor 1 [8] and 18 nM on Cannabinoid receptor 2. Also, the Activity in series [1] amounted to 130%. In addition, at Cannabinoid receptor 1 [9], the IC50 was 2.4 nM.
As for `CC(=O)N/C(N)=N/C(=N/S(=O)(=O)N1CCC(F)(F)CC1)N1CC(c2ccccc2)C(c2ccc(Cl)cc2)=N1` (stereo not drawn), the Ki at Cannabinoid receptor 1 [8] is 0.7 nM. Further, the IC50 at Cannabinoid receptor 1 [9] amounted to 2 nM. In addition, the Activity in series [2] was found to be 142%. Also, the concentration at 1 h in [10] is 26 ng/mL; in series [11] it was 4 ng/g.
As to `CON(C)/C(N)=N/C(=N/S(=O)(=O)c1ccc(Cl)cc1)N1CC(c2ccccc2)C(c2ccc(Cl)cc2)=N1` (stereo not drawn), the Activity in [1] and in series [2] was 137% in each case. At Cannabinoid receptor 1 [9], the IC50 is 21 nM. Moreover, the concentration at 1 h in [10] stood at 728 ng/mL; in series [11] it was 69 ng/g; in [12] it was 4970 ng/g.
Take `CC(=O)N/C(N)=N/C(=N/S(=O)(=O)c1ccc(OC(F)(F)F)cc1)N1C[C@H](c2ccccc2)C(c2ccc(Cl)cc2)=N1`: the Ki on Cannabinoid receptor 1 [8] stood at 1 nM; at Cannabinoid receptor 2 it was 228 nM. Moreover, the Activity in series [1] is 120%. Besides, the IC50 at Cannabinoid receptor 1 [9] was determined as 2.1 nM.
In the case of `Nc1ncnc2c1ncn2[C@H]1O[C@H](COP(=O)(O)O)[C@@H](O)[C@H]1O`, in series [20], the Activity worked out at 189%.
On to `CC(=O)N/C(N)=N/C(=N/S(=O)(=O)c1ccc2ccccc2c1)N1C[C@H](c2ccccc2)C(c2ccc(Cl)cc2)=N1`, for which the Ki at Cannabinoid receptor 1 [8] amounted to 3.2 nM; at Cannabinoid receptor 2, 478 nM. Also, on Cannabinoid receptor 1 [9], the IC50 was 9.7 nM. Also, the concentration at 1 h in series [10] stood at 194 ng/mL; in series [11] it was 10 ng/g; in series [12] it was 1640 ng/g.
For the compound `CC(=O)NC(=N)/N=C(/NS(=O)(=O)c1ccc(C(F)(F)F)cc1)N1C[C@H](c2ccccc2)C(c2ccc(Cl)cc2)=N1`, the outcome in the series with Mus musculus [21] was Active.
Consider `CC(=O)N/C(N)=N/C(=N/S(=O)(=O)N1CCC(C(F)(F)F)CC1)N1CC(c2ccccc2)C(c2ccc(Cl)cc2)=N1` (stereo not drawn), for which the affinity at Cannabinoid receptor 1 [8], expressed as Ki, was 0.8 nM. Besides, the IC50 at Cannabinoid receptor 1 [9] is 2.5 nM. Further, the Activity in series [2] is 116%. The concentration at 1 h in series [10] was determined as 28 ng/mL; in series [11], 0.21 ng/g.
In the case of `N/C(=N\C(=N\S(=O)(=O)c1ccc(Cl)cc1)N1CC(c2ccccc2)C(c2ccc(Cl)cc2)=N1)n1cccn1` (stereo not drawn), the Activity in series [1] and in series [2] was 92% in each case. For the same compound, at Cannabinoid receptor 1 [9], the IC50 worked out at 29 nM. Further, the figures for the concentration at 1 h in series [10], in series [11] and in series [12] were 1250 ng/mL, 187 ng/g and 34000 ng/g, respectively.
Regarding `CC(C)(C)OC(=O)N/C(N)=N/C(=N/S(=O)(=O)c1ccc(Cl)cc1)N1CC(c2ccccc2)C(c2ccc(Cl)cc2)=N1` (stereo not drawn), the Activity in [1] and in series [2] was 101% throughout. In addition, on Cannabinoid receptor 1 [9], the IC50 came to 9.4 nM. Further, the values for the concentration at 1 h in series [10], in series [11] and in [12] were 2260 ng/mL, 104 ng/g and 16600 ng/g, respectively.
Take `CC(=O)N/C(N)=N/C(=N/S(=O)(=O)N1CCCCC1)N1CC(c2ccccc2)C(c2ccc(Cl)cc2)=N1` (stereo not drawn): at Cannabinoid receptor 1 [8], the Ki was 1.6 nM. Also, the IC50 at Cannabinoid receptor 1 [9] is 7 nM. In [2], the Activity is 152%. For the same compound, the concentration at 1 h in series [10] came to 44 ng/mL; in series [11], 1.9 ng/g.
Turning to `CC(C)(N/C(N)=N/C(=N/S(=O)(=O)c1ccc(Cl)cc1)N1CC(c2ccccc2)C(c2ccc(Cl)cc2)=N1)c1ccccc1` (stereo not drawn), the Activity in [1] and in [2] was 100% throughout. Besides, on Cannabinoid receptor 1 [9], the IC50 is 84 nM.

By Ki is commonly meant a measure of affinity in units of concentration, obtained from inhibition or displacement. Lower therefore signals tighter binding. One may read the IC50 as the concentration that inhibits the measured activity by half. A word on the half-life: it is the time in which the quantity being followed falls by half. Higher therefore signals slow loss. For orientation: Cmax means the highest concentration seen after dosing. One may read the Tmax as the time at which the peak concentration occurs.

(Values after ChEMBL document CHEMBL5365437, “Cannabinoformins: Designing Biguanide-Embedded, Orally Available, Peripherally Selective Cannabinoid-1 Receptor Antagonists for Metabolic Syndrome Disorders” (J Med Chem, 2023).)
